Consider 32 compounds from patent publication US6780863B1, “Bis-basic compounds with tryptase-inhibitory activity” (Boehringer Ingelheim Pharma GmbH & Co. KG, priority 1999, dated 2004).

T1 sequence (Q15661 31-275): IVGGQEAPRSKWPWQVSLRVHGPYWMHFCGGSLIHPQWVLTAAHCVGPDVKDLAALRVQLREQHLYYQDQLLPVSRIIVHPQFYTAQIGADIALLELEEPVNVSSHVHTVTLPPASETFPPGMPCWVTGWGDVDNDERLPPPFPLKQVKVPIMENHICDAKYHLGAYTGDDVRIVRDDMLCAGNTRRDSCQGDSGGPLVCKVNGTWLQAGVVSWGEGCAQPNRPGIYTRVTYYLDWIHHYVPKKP

This assay concerns the target T1, rh beta tryptase (Homo sapiens, UniProt Q15661).
T1 construct: purchased Promega
The experiment in a line: tryptase inhibition test (cleavage of N-p-tosyl-Gly-Pro-Lys-para-nitroaniline, p-nitroaniline measured at 405 nm). The format is biochemical. As to conditions: Tris HCl buffer pH 7.4 with calcium and heparin; substrate 0.6 mM; 5 min pre-incubation, 5 min incubation, 37° C. The procedure: The compounds according to the invention are characterised by their tryptase-inhibiting activity. This ability to inhibit tryptase was investigated using the test described below.
The measurement is carried out in Tris HCl buffer (100 mM), which additionally contains calcium (5 mM) and heparin (100 mg/ml), at pH 7.4. The standard used is rh beta tryptase which may be obtained commercially from Promega, for example. The substrate used is N-p-tosyl—Gly-Pro-Lys-para-nitroaniline in a concentration of 0.6 mM. The substrate is digested with tryptase to form p-nitroaniline which can be measured at 405 nm. Usually, an incubation period of 5 minutes and an incubation temperature of 37° C. are chosen. The enzyme activity used is 0.91 U/ml. The measurements are carried out in an Autoanalyser (Cobas Bio) made by Hofmann LaRoche. The potential inhibitory substances are used in concentrations of 10 μM in the screening, the inhibition of the tryptase being given in percent. The IC50 (concentration at which 50% of the enzyme activity is inhibited) is determined at over 70% inhibition. After 5 minutes' pre-incubation of the potential inhibitory substances, the substrate is added to start the reaction, the formation of p-nitroaniline being taken as a measurement of the enzyme activity after 5 minutes, after testing the linearity.
For the compound `NCc1ccc(OCc2cccc(CNCCCCCNCc3cccc(COc4ccc(CN)cc4)c3)c2)cc1` [Example 7], the half-maximal inhibitory concentration (IC50) (as a rule, the point on the concentration scale where inhibition reaches its midpoint) was found to be 4.3 nM.

For the compound `NCc1ccc(OCc2cccc(CNCCc3cccc(NCc4cccc(COc5ccc(CN)cc5)c4)c3)c2)cc1` [Example 10], the IC50 worked out at 35 nM.

For the compound `NCc1ccc(OCc2cccc(CNCC3CCC(CNCc4cccc(COc5ccc(CN)cc5)c4)CC3)c2)cc1` (centres unmarked) [Example 11], the IC50 came to 4 nM.

Turning to `CC(C)(CCC(C)(C)NCc1cccc(COc2ccc(CN)cc2)c1)NCc1cccc(COc2ccc(CN)cc2)c1` [Example 14], the IC50 is 13 nM.

With `NCc1ccc(OCc2cccc(CNCc3cccc(CNCc4cccc(COc5ccc(CN)cc5)c4)c3)c2)cc1` [Example 15], the IC50 is 23 nM.

In the case of `NCc1ccc(OCc2cccc(CNCc3ccc(CNCc4cccc(COc5ccc(CN)cc5)c4)cc3)c2)cc1` [Example 16], the IC50 came to 12 nM.

As for `N=C(N)c1ccc(OCc2cccc(CNCCCCCNCc3cccc(COc4ccc(C(=N)N)cc4)c3)c2)cc1` [Example 17], the IC50 turned out to be 1.4 nM.

As to `CC1(NCc2cccc(COc3ccc(CN)cc3)c2)CCC(C(C)(C)NCc2cccc(COc3ccc(CN)cc3)c2)CC1` (centres unmarked) [Example 18], the IC50 worked out at 10.7 nM.

In the case of `NCc1ccc(OCc2cccc(CNC3CCC(CC4CCC(NCc5cccc(COc6ccc(CN)cc6)c5)CC4)CC3)c2)cc1` (centres unmarked) [Example 19], the IC50 is 10 nM.

With `NCc1ccc(OCc2cccc(CNCC3CCCC(CNCc4cccc(COc5ccc(CN)cc5)c4)C3)c2)cc1` (centres unmarked) [Example 20], the 50% inhibitory concentration (IC50) stood at 7.1 nM.

As for `N=C(N)c1ccc(OCc2cccc(CNCCCCCCCNCc3cccc(COc4ccc(C(=N)N)cc4)c3)c2)cc1` [Example 23], the IC50 worked out at 1.1 nM.

Consider `CN(CCCCCCN(C)Cc1cccc(COc2ccc(C(=N)N)cc2)c1)Cc1cccc(COc2ccc(C(=N)N)cc2)c1` [Example 24], for which the IC50 came out at 3.1 nM.

For the compound `N=C(N)c1ccc(OCc2cccc(CNCCCCCCNCc3cccc(COc4ccc(C(=N)N)cc4)c3)c2)cc1` [Example 25], the IC50 amounted to 1.2 nM.

Take `N=C(N)c1ccc(OCc2cccc(CNCC3CCC(CNCc4cccc(COc5ccc(C(=N)N)cc5)c4)CC3)c2)cc1` (centres unmarked) [Example 26]: the IC50 was 0.8 nM.

On to `CC(C)(CCC(C)(C)NCc1cccc(COc2ccc(C(=N)N)cc2)c1)NCc1cccc(COc2ccc(C(=N)N)cc2)c1` [Example 27], for which the IC50 is 1.7 nM.

`N=C(N)c1ccc(OCc2cccc(CNCc3cccc(CNCc4cccc(COc5ccc(C(=N)N)cc5)c4)c3)c2)cc1` [Example 28]: the IC50 was determined as 5.3 nM.

Turning to `N=C(N)c1ccc(OCc2cccc(CNCc3ccc(CNCc4cccc(COc5ccc(C(=N)N)cc5)c4)cc3)c2)cc1` [Example 29], the IC50 was found to be 1.7 nM.

In the case of `CCCCN(CCCCCCN(CCCC)Cc1cccc(COc2ccc(C(=N)N)cc2)c1)Cc1cccc(COc2ccc(C(=N)N)cc2)c1` [Example 30], the IC50 came to 6.8 nM.

`CN(CCCCCCN(C)Cc1cccc(COc2ccc(CN)cc2)c1)Cc1cccc(COc2ccc(CN)cc2)c1` [Example 31]: the IC50 was found to be 13 nM.

Turning to `N=C(N)c1ccc(OCc2cccc(CNCCCCC(NCc3cccc(COc4ccc(C(=N)N)cc4)c3)C(=O)O)c2)cc1` (centres unmarked) [Example 32], the IC50 was 32.4 nM.

As to `CC(C)(CCCCC(C)(C)NCc1cccc(COc2ccc(C(=N)N)cc2)c1)NCc1cccc(COc2ccc(C(=N)N)cc2)c1` [Example 33], the IC50 was 2.5 nM.

Regarding `N=C(N)c1ccc(OCc2cccc(CN3CCC(C4CCN(Cc5cccc(COc6ccc(C(=N)N)cc6)c5)CC4)CC3)c2)cc1` [Example 34], the IC50 amounted to 0.8 nM.

Consider `CN(Cc1ccc(CN(C)Cc2cccc(COc3ccc(CCN)cc3)c2)cc1)Cc1cccc(COc2ccc(CCN)cc2)c1` [Example 35], for which the half-inhibitory concentration (IC50) stood at 31.6 nM.

Turning to `N=C(N)c1ccc(OCc2cccc(CNCCOCCNCc3cccc(COc4ccc(C(=N)N)cc4)c3)c2)cc1` [Example 39], the IC50 is 12 nM.

Consider `CC1(NCc2cccc(COc3ccc(C(=N)N)cc3)c2)CCC(C(C)(C)NCc2cccc(COc3ccc(C(=N)N)cc3)c2)CC1` (centres unmarked) [Example 40], for which the 50% inhibitory concentration (IC50) was 5 nM.

Consider `NCCc1ccc(OCc2cccc(CN3CCC(C4CCN(Cc5cccc(COc6ccc(CCN)cc6)c5)CC4)CC3)c2)cc1` [Example 42], for which the IC50 was found to be 30.9 nM.

In the case of `N=C(N)c1ccc(OCc2cccc(COCc3ccc(COCc4cccc(COc5ccc(C(=N)N)cc5)c4)cc3)c2)cc1` [Example 56], the IC50 was 19 nM.

Regarding `N=C(N)c1ccc(OCc2cccc(CN(Cc3ccc(CN(Cc4cccc(COc5ccc(C(=N)N)cc5)c4)C4CC4)cc3)C3CC3)c2)cc1` [Example 62], the IC50 was determined as 41 nM.

In the case of `N=C(N)c1ccc(OCc2ccc(CNCCCCCCNCc3ccc(COc4ccc(C(=N)N)cc4)cc3)cc2)cc1` [Example 63], the IC50 was 0.74 nM.

For the compound `N=C(N)c1ccc(OCc2ccc(CN3CCC(C4CCN(Cc5ccc(COc6ccc(C(=N)N)cc6)cc5)CC4)CC3)cc2)cc1` [Example 64], the IC50 turned out to be 1.1 nM.

Consider `N=C(N)c1ccc(OCc2ccc(CNCc3ccc(CNCc4ccc(COc5ccc(C(=N)N)cc5)cc4)cc3)cc2)cc1` [Example 65], for which the IC50 is 0.59 nM.

As to `NCc1ccc(OCc2cccc(CN3CCC(C4CCN(Cc5cccc(COc6ccc(CN)cc6)c5)CC4)CC3)c2)cc1` [Example 68], the IC50 was determined as 2.5 nM.
